Test results taken from patent US8580229B2, “Amyloid imaging as a surrogate marker for efficacy of anti-amyloid therapies” (University of Pittsburgh—of the Commonwealth System of …, priority 2004, dated 2013).

System: amyloid deposition in AD brain (homogenates of frontal, temporal, parietal cortex and cerebellum)
Experiment: [^3H]PIB binding to homogenates of postmortem brain
Set-up: species or system human
Conditions: AD n=5, control n=4; 1 nM [^3H]PIB
Procedure: To determine whether benzothiazole amyloid imaging probes might be sensitive to changes in brain amyloid deposition caused by an anti-amyloid therapy in general, testing by immunization with AN-1792 was performed. Studies were performed for the binding of {N-methyl-^3H}2-[4′-(methylamino)phenyl]6-hydroxy-benzothiazole ([^3H]PIB) to homogenates of frontal cortex and cerebellum obtained from control subjects (n=4), AD patients (n=5) and from a single AN-1792-treated AD case (in duplicate). See, e.g., Example 9.
This [^11C]PIB retention follows the known topography of amyloid deposition in AD brain (Klunk et al. 2004, Ann. Neurol., 55 (3):306-19). To determine whether the present benzothiazole amyloid imaging probes are sensitive to changes in brain amyloid deposition caused by an anti-amyloid therapy in general, studies were performed for the binding of {N-methyl-^3H}2-[4′-(methylamino)phenyl]6-hydroxy-benzothiazole ([^3H]PIB) to homogenates of postmortem brain from […] AN-1792-treated AD cases. […] An aliquot was submitted for Aβ ELISA and another aliquot was assayed for [^3H]PIB binding after dilution with phosphate-buffered saline (100 mg tissue, incubated with 1 nM [^3H]PIB, filtered, washed and counted to determine bound [^3H]PIB).

For [3H]C([3H])([3H])Nc1ccc(-c2nc3ccc(O)cc3s2)cc1 [[^3H]PIB, {N-methyl-^3H}2-[4′-(methylamino)phenyl]6-hydroxy-benzothiazole], the “[^3H]PIB binding to frontal cortex homogenates of AD patients compared to control brain” value was “elevated [^3H]PIB binding compared to control brain”.
